The values below come from US9376429B2, “Sodium channel blockers, preparation method thereof and use thereof” (Daewoong Pharmaceutical Co., Ltd., priority 2012, dated 2016).

Usually IC50 stands for the concentration at which inhibition is half-maximal. The low end stands for inhibition by little substance, the high end for a need for much substance.

Where only a bound is given, the exact number is not on record here.

T1 sequence (Q15858 whole entry): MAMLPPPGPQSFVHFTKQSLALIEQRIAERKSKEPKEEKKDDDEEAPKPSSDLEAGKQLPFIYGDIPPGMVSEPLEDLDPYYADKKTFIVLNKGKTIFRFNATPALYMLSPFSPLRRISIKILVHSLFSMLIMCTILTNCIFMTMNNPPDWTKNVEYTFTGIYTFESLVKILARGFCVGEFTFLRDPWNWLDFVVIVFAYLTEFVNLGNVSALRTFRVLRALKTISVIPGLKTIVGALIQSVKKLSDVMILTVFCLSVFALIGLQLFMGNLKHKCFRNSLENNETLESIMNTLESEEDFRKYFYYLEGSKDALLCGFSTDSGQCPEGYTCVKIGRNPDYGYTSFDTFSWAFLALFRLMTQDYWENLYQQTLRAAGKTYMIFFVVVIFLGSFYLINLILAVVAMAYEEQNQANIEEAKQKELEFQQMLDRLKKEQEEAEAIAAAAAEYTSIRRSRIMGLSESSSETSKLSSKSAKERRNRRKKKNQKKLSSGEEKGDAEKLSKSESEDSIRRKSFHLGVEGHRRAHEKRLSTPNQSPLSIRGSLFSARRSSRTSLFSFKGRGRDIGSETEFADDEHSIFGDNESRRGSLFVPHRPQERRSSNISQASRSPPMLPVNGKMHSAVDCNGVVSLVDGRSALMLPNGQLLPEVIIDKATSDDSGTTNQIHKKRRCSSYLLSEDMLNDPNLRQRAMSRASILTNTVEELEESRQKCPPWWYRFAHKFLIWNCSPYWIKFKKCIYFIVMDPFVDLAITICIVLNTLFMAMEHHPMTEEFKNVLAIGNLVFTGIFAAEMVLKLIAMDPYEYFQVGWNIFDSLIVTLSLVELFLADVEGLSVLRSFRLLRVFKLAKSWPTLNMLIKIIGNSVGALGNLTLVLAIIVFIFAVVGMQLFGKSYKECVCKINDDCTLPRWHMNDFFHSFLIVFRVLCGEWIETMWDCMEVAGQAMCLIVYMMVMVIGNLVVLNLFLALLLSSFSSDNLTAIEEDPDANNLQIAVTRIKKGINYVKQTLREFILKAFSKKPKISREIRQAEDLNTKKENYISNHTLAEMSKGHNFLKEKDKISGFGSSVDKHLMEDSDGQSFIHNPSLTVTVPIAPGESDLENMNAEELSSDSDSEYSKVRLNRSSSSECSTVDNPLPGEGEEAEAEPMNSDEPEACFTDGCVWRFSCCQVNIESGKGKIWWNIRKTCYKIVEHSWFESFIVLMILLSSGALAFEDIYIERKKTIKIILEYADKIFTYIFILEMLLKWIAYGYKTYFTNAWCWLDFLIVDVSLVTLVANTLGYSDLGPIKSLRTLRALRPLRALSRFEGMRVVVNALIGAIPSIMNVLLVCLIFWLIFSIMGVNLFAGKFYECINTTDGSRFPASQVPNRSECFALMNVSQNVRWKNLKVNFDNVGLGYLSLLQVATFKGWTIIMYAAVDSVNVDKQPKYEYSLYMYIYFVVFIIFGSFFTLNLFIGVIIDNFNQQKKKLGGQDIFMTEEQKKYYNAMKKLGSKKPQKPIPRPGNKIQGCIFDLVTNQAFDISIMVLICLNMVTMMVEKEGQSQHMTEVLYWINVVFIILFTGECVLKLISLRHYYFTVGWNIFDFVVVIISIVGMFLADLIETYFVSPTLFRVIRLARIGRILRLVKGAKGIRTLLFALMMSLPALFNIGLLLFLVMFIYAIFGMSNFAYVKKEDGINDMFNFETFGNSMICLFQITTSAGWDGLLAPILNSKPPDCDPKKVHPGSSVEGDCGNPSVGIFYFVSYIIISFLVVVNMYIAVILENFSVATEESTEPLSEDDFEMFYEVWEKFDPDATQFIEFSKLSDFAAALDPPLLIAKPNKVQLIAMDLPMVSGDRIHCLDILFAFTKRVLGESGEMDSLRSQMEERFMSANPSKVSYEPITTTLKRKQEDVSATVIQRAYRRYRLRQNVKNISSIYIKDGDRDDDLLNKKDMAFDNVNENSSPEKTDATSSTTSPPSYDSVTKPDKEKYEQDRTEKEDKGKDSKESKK

The assay addresses T1, sodium ion channel (Nav1.7) (Homo sapiens, UniProt Q15858).
T1 construct: host or cells: HEK293
Description: Blocking effect against sodium ion channel (Nav1.7), IonFlux16 auto patch clamp, hNav1.7 HEK293 cells. It counts as cell-based. Particulars: peak current after 50 seconds treatment, eight concentrations. The method in brief: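 HEK293 cells stably expressing human Nav1.7 were recorded by IonFlux16 automated patch clamp in extracellular solution (pH 7.45, final DMSO ≤0.3%). Peak current was measured after 50 s exposure to each of eight compound concentrations and expressed as percent inhibition relative to pre-compound current.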
On the technique in general: Patch clamp records ionic current or voltage across a cell membrane.
Molecule `N#Cc1cc(S(=O)(=O)Nc2cscn2)ccc1Oc1cnc(-c2ccc(F)c(F)c2)cc1-c1cccnc1` [Example 85, 3-cyano-4-((6′-(3,4-difluorophenyl)-[3,4′-bipyridin]-3′-yl)oxy)-N-(thiazol-4-yl)benzenesulfonamide] displayed an IC50 of more than 100 nM.

The molecule `N#Cc1cc(S(=O)(=O)Nc2ncns2)ccc1Oc1cnc(-c2ccccc2)cc1-c1ccoc1` [Example 3, 3-cyano-4-(4-(furan-3-yl)-6-phenylpyridin-3-yloxy)-N-(1,2,4-thiadiazol-5-yl)benzenesulfonamide] returned an IC50 of less than 50 nM.

`Cn1cc(-c2cc(-c3cccnc3F)ncc2Oc2cc(F)c(S(=O)(=O)Nc3cscn3)cc2Cl)cn1` [Example 69, 5-chloro-2-fluoro-4-((2′-fluoro-4-(1-methyl-1H-pyrazol-4-yl)-[2,3′-bipyridin]-5-yl)oxy)-N-(thiazol-4-yl)benzenesulfonamide 2,2,2-trifluoroacetate] showed a 50% inhibitory concentration (IC50) of more than 100 nM.

Turning to `N#Cc1cc(S(=O)(=O)Nc2nccs2)ccc1Oc1cnc(-c2ccccc2)cc1-c1cnn(C2CC2)c1` [Example 44, 3-cyano-4-((4-(1-cyclopropyl-1H-pyrazol-4-yl)-6-phenylpyridin-3-yl)oxy)-N-(thiazol-2-yl)benzenesulfonamide], the IC50 is more than 100 nM.

As for `Cn1cc(-c2nc(-c3ccnc(F)c3)ccc2Oc2ccc(S(=O)(=O)Nc3nccs3)cc2C#N)cn1` [Example 125, 3-cyano-4-((2′-fluoro-6-(1-methyl-1H-pyrazol-4-yl)-[2,4′-bipyridin]-5-yl)oxy)-N-(thiazol-2-yl)benzenesulfonamide], the 50% inhibitory concentration (IC50) is more than 100 nM.

`O=S(=O)(Nc1cscn1)c1cc(Cl)c(Oc2cnc(-c3ccnc(F)c3)cc2-c2ccoc2)cc1F` [Example 62, 5-chloro-2-fluoro-4-((2′-fluoro-4-(furan-3-yl)-[2,4′-bipyridin]-5-yl)oxy)-N-(thiazol-4-yl)benzenesulfonamide]: the IC50 is more than 100 nM.

Turning to `N#Cc1cc(S(=O)(=O)Nc2nccs2)ccc1Oc1ccc(-c2cccnc2F)nc1-c1ccoc1` [Example 103, 3-cyano-4-((2′-fluoro-6-(furan-3-yl)-[2,3′-bipyridin]-5-yl)oxy)-N-(thiazol-2-yl)benzenesulfonamide], the IC50 was more than 100 nM.

`Cn1cc(-c2cc(-c3ccc(F)nc3)ncc2Oc2cc(F)c(S(=O)(=O)Nc3cscn3)cc2Cl)cn1` [Example 70, 5-chloro-2-fluoro-4-((6′-fluoro-4-(1-methyl-1H-pyrazol-4-yl)-[2,3′-bipyridin]-5-yl)oxy)-N-(thiazol-4-yl)benzenesulfonamide 2,2,2-trifluoroacetate] showed an IC50 of more than 100 nM.

In the case of `N#Cc1cc(S(=O)(=O)Nc2nccs2)ccc1Oc1cnc(-c2cn[nH]c2)cc1-c1ccoc1` [Example 45, 3-cyano-4-((4-(furan-3-yl)-6-(1H-pyrazol-4-yl)pyridin-3-yl)oxy)-N-(thiazol-2-yl)benzenesulfonamide], the IC50 was more than 100 nM.

Take `N#Cc1cc(S(=O)(=O)Nc2nccs2)ccc1Oc1cnc(-c2ccc(F)nc2F)cc1-c1ccoc1` [Example 12, 3-cyano-4-(2′,6′-difluoro-4-(furan-3-yl)-2,3′-bipyridin-5-yloxy)-N-(thiazol-2-yl)benzenesulfonamide]: the IC50 is less than 50 nM.

`Cn1cc(-c2nc(-c3ccc(F)nc3)ccc2Oc2ccc(S(=O)(=O)Nc3nccs3)cc2C#N)cn1` [Example 124, 3-cyano-4-((6′-fluoro-6-(1-methyl-1H-pyrazol-4-yl)-[2,3′-bipyridin]-5-yl)oxy)-N-(thiazol-2-yl)benzenesulfonamide]: the IC50 was more than 100 nM.

`O=S(=O)(Nc1cscn1)c1cc(F)c(Oc2cnc(-c3cccc(F)c3)cc2-c2cncnc2)cc1F` [Example 95, 2,5-difluoro-4-((6-(3-fluorophenyl)-4-(pyrimidin-5-yl)pyridin-3-yl)oxy)-N-(thiazol-4-yl)benzenesulfonamide] returned an IC50 of more than 100 nM.

With `Cn1nccc1-c1nc(-c2ccc(F)cc2)ccc1Oc1cc(F)c(S(=O)(=O)Nc2cscn2)cc1Cl` [Example 135, 5-chloro-2-fluoro-4-((6-(4-fluorophenyl)-2-(1-methyl-1H-pyrazol-5-yl)pyridin-3-yl)oxy)-N-(thiazol-4-yl)benzenesulfonamide], the IC50 was more than 100 nM.

`N#Cc1cc(S(=O)(=O)Nc2nccs2)ccc1Oc1cnc(-c2ccccc2F)cc1-c1cccnc1` [Example 52, 3-cyano-4-((6′-(2-fluorophenyl)-[3,4′-bipyridin]-3′-yl)oxy)-N-(thiazol-2-yl)benzenesulfonamide] showed an IC50 of more than 100 nM.

Consider `N#Cc1cc(S(=O)(=O)Nc2nccs2)ccc1Oc1cnc(-c2cccc(F)c2)cc1-c1ccoc1` [Example 5, 3-cyano-4-(6-(3-fluorophenyl)-4-(furan-3-yl)pyridin-3-yloxy)-N-(thiazol-2-yl)benzenesulfonamide], for which the IC50 is less than 50 nM.

The molecule `Cn1nccc1-c1cc(Cl)ccc1C(O)c1ccc(S(=O)(=O)Nc2nccs2)cc1F` (stereo not drawn) [Example 144, 4-((4-chloro-2-(1-methyl-1H-pyrazol-5-yl)phenyl)(hydroxy)methyl)-3-fluoro-N-(thiazol-2-yl)benzenesulfonamide] had an IC50 of more than 100 nM.

`Cn1nccc1-c1cc(-c2ccoc2)ncc1Oc1ccc(S(=O)(=O)Nc2nccs2)cc1C#N` [Example 25, 3-cyano-4-((6-(furan-3-yl)-4-(1-methyl-1H-pyrazol-5-yl)pyridin-3-yl)oxy)-N-(thiazol-2-yl)benzenesulfonamide] yielded an IC50 of more than 100 nM.

As to `O=S(=O)(Nc1nccs1)c1ccc(C(O)c2ccc(Cl)cc2-c2ccoc2)c(F)c1` (stereo not drawn) [Example 140, 4-((4-chloro-2-(furan-3-yl)phenyl)(hydroxy)methyl)-3-fluoro-N-(thiazol-2-yl)benzenesulfonamide], the IC50 was more than 100 nM.

`O=S(=O)(Nc1nccs1)c1ccc(C(O)c2ccc(Cl)cc2-c2ccncc2)cc1` (stereo not drawn) [Example 147, 4-((4-chloro-2-(pyridin-4-yl)phenyl)(hydroxy)methyl)-N-(thiazol-2-yl)benzenesulfonamide] displayed a half-inhibitory concentration (IC50) of more than 100 nM.

Consider `Cn1nccc1-c1cc(-c2ccccc2)ncc1Oc1ccc(S(=O)(=O)Nc2nccs2)cc1C#N` [Example 2], for which the IC50 is more than 100 nM.

In the case of `O=S(=O)(Nc1nccs1)c1ccc(C(O)c2ccc(Cl)cc2-c2cccnc2)c(F)c1` (stereo not drawn) [Example 145, 4-((4-chloro-2-(pyridin-3-yl)phenyl)(hydroxy)methyl)-3-fluoro-N-(thiazol-2-yl)benzenesulfonamide], the IC50 was more than 100 nM.

In turn, `O=S(=O)(Nc1nccs1)c1ccc(C(O)c2ccc(-c3cccc(F)c3)cc2-c2ccoc2)cc1` (stereo not drawn) [Example 153, 4-((3′-fluoro-3-(furan-3-yl)-[1,1′-biphenyl]-4-yl)(hydroxy)methyl)-N-(thiazol-2-yl)benzenesulfonamide] returned an IC50 of 51 to 100 nM.

`N#Cc1cc(S(=O)(=O)Nc2nccs2)ccc1Oc1ccc(-c2ccccc2F)nc1-c1ccoc1` [Example 108, 3-cyano-4-((6-(2-fluorophenyl)-2-(furan-3-yl)pyridin-3-yl)oxy)-N-(thiazol-2-yl)benzenesulfonamide] showed an IC50 of 51 to 100 nM.

Molecule `N#Cc1cc(S(=O)(=O)Nc2nccs2)ccc1Oc1ccc(-c2ccnc(F)c2)nc1-c1ccoc1` [Example 112, 3-cyano-4-((2′-fluoro-6-(furan-3-yl)-[2,4′-bipyridin]-5-yl)oxy)-N-(thiazol-2-yl)benzenesulfonamide] yielded an IC50 of 51 to 100 nM.

Take `N#Cc1cc(S(=O)(=O)Nc2nccs2)ccc1Oc1cnc(-c2cccnc2F)cc1-c1cccnc1` [Example 51, 3-cyano-4-((2-fluoro-[3,2′:4′,3″-terpyridin]-5′-yl)oxy)-N-(thiazol-2-yl)benzenesulfonamide]: the IC50 was more than 100 nM.

As to `O=S(=O)(Nc1cscn1)c1cc(F)c(Oc2cnc(-c3ccc(C(F)(F)F)c(F)c3)cc2-c2cccnc2)cc1F` [Example 89, 2,5-difluoro-4-((6′-(3-fluoro-4-(trifluoromethyl)phenyl)-[3,4′-bipyridin]-3′-yl)oxy)-N-(thiazol-4-yl)benzenesulfonamide], the IC50 is more than 100 nM.

As to `Cc1cc(-c2cc(-c3ccccc3)ncc2Oc2ccc(S(=O)(=O)Nc3nccs3)cc2C#N)cnc1F` [Example 32, 3-cyano-4-((6-fluoro-5-methyl-6′-phenyl-[3,4′-bipyridin]-3′-yl)oxy)-N-(thiazol-2-yl)benzenesulfonamide], the IC50 is more than 100 nM.

In turn, `Cn1nccc1-c1cc(-c2cccc(F)c2)ncc1Oc1ccc(S(=O)(=O)Nc2nccs2)cc1C#N` [Example 26, 3-cyano-4-((6-(3-fluorophenyl)-4-(1-methyl-1H-pyrazol-5-yl)pyridin-3-yl)oxy)-N-(thiazol-2-yl)benzenesulfonamide] registered a half-maximal inhibitory concentration (IC50) of 51 to 100 nM.

In the case of `N#Cc1cc(S(=O)(=O)Nc2nccs2)ccc1Oc1cnc(-c2ccccc2)cc1-c1cccnc1` [Example 33, 3-cyano-4-((6′-phenyl-[3,4′-bipyridin]-3′-yl)oxy)-N-(thiazol-2-yl)benzenesulfonamide], the IC50 was more than 100 nM.

`Cn1nccc1-c1nc(-c2ccc(F)nc2)ccc1Oc1ccc(S(=O)(=O)Nc2nccs2)cc1C#N` [Example 115, 3-cyano-4-((6′-fluoro-6-(1-methyl-1H-pyrazol-5-yl)-[2,3′-bipyridin]-5-yl)oxy)-N-(thiazol-2-yl)benzenesulfonamide] returned an IC50 of more than 100 nM.

On to `O=S(=O)(Nc1cscn1)c1cc(Cl)c(Oc2ccc(-c3ccc(F)nc3F)nc2-c2ccoc2)cc1F` [Example 129, 5-chloro-4-((2′,6′-difluoro-6-(furan-3-yl)-[2,3′-bipyridin]-5-yl)oxy)-2-fluoro-N-(thiazol-4-yl)benzenesulfonamide], for which the IC50 was more than 100 nM.

`O=S(=O)(Nc1nccs1)c1ccc(Oc2cnc(-c3ccc(F)nc3)cc2-c2ccoc2)c(F)c1` [Example 48, 3-fluoro-4-((6′-fluoro-4-(furan-3-yl)-[2,3′-bipyridin]-5-yl)oxy)-N-(thiazol-2-yl)benzenesulfonamide] showed an IC50 of more than 100 nM.

In turn, `O=S(=O)(Nc1nccs1)c1ccc(C(O)c2cccnc2-c2ccccc2)c(F)c1` (stereo not drawn) [Example 157, 3-fluoro-4-(hydroxy(2-phenylpyridin-3-yl)methyl)-N-(thiazol-2-yl)benzenesulfonamide] came in with an IC50 of more than 100 nM.
